According to BindingDB's records for doi:10.1016/j.bmcl.2006.01.095 (Technische Universität Graz, 2006):

Legend:
[1] = Inhibition of jack beans alpha-mannosidase
[2] = Inhibition of Streptomyces plicatus beta-D-hexosaminidase

Row | SMILES | Ki [1] [µM] | Ki [2] [µM]
1 | CN(C)c1ccc(-c2cnc(-c3ccc(S(=O)(=O)NCCCCCCN4C[C@H](O)[C@@H](O)[C@H](O)[C@H]4CO)cc3)o2)cc1 [4-(5-(4-(dimethylamino)phenyl)oxazol-2-yl)-N-(6-((2R,3R,4R,5S)-3,4,5-trihydroxy-2-(hydroxymethyl)piperidin-1-yl)hexyl)benzenesulfonamide] | 65 | 
2 | CC(=O)N[C@H]1CN(CCCCCCNS(=O)(=O)c2cccc3c(N(C)C)cccc23)[C@H](CO)[C@@H](O)[C@@H]1O [N-((3S,4R,5R,6R)-1-(6-(1-(dimethylamino)naphthalene-5-sulfonamido)hexyl)-4,5-dihydroxy-6-(hydroxymethyl)piperidin-3-yl)acetamide] |  | 1.8
